Experimental data reported in US9695155B2, “Herbicidal substituted pyrimidinyloxy benzene compounds” (E. I. DU PONT DE NEMOURS AND COMPANY, priority 2013, dated 2017).

Key:
speedwell = test: Test D postemergence; type: in vivo, Veronica persica; details: Veronica persica, post-emergence, scale 0 to 100 (0 no effect, 100 complete control), read-out: Plant response rating, Speedwell
Summary of the method: (§1)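 Values are 0–100 visual control ratings (0 none, 100 complete) given 7–21 days after application. Soil for preemergence was silt loam; postemergence plants stood 2–18 cm tall.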

chickweed = test: Test D postemergence; type: in vivo, Stellaria media; details: Stellaria media, post-emergence, scale 0 to 100 (0 no effect, 100 complete control), read-out: Plant response rating, Chickweed
Summary of the method: as §1

arrowleaf sida = test: Test E postemergence; type: in vivo, Sida rhombifolia; details: Sida rhombifolia, post-emergence, read-out: Plant response rating, Arrowleaf Sida
Summary of the method: (§2)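 Test chemicals formulated in a non-phytotoxic solvent mixture containing a surfactant were applied preemergence to seeds in silt loam soil or postemergence to plants at the 1- to 4-leaf stage in potting mix. After 14 to 21 days in a greenhouse, injury was visually rated against controls on a 0-100 scale (0 = no effect, 100 = complete control).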

wild buckwheat = test: Test D preemergence; type: in vivo, Polygonum convolvulus; details: Fallopia convolvulus, pre-emergence, scale 0-100, read-out: Plant response rating, Buckwheat, Wild
Summary of the method: as §1

lambsquarters [1] = test: Test D preemergence; type: in vivo, Chenopodium album; details: Chenopodium album, pre-emergence, scale 0-100, read-out: Plant response rating, Lambsquarters
Summary of the method: as §1

deadnettle [2] = test: Test D postemergence; type: in vivo, Lamium amplexicaule; details: Lamium amplexicaule, post-emergence, scale 0 to 100 (0 no effect, 100 complete control), read-out: Plant response rating, Deadnettle
Summary of the method: as §1

blackgrass = test: Test D preemergence; type: in vivo, Alopecurus myosuroides; details: Alopecurus myosuroides, pre-emergence, scale 0-100, read-out: Plant response rating, Blackgrass
Summary of the method: as §1

lambsquarters [3] = test: Test D postemergence; type: in vivo, Chenopodium album; details: Chenopodium album, post-emergence, scale 0 to 100 (0 no effect, 100 complete control), read-out: Plant response rating, Lambsquarters
Summary of the method: as §1

kochia = test: Test D preemergence; type: in vivo, Kochia scoparia; details: Bassia scoparia, pre-emergence, scale 0-100, read-out: Plant response rating, Kochia
Summary of the method: as §1

corn = test: Test E postemergence; type: in vivo, Zea mays; details: Zea mays, post-emergence
Summary of the method: as §2

palmer pigweed = test: Test E postemergence; type: in vivo, Amaranthus palmeri; details: post-emergence, read-out: Plant response rating, Pigweed, Palmer
Summary of the method: as §2

wild mustard = test: Test D postemergence; type: in vivo, Sinapis arvensis; details: Brassica, post-emergence, scale 0 to 100 (0 no effect, 100 complete control), read-out: Plant response rating, Mustard, Wild
Summary of the method: as §1

deadnettle [4] = test: Test D preemergence; type: in vivo, Lamium amplexicaule; details: Lamium amplexicaule, pre-emergence, scale 0-100, read-out: Plant response rating, Deadnettle
Summary of the method: as §1

galium = test: Test D postemergence; type: in vivo, Galium aparine; details: Galium, post-emergence, scale 0 to 100 (0 no effect, 100 complete control), read-out: Plant response rating, Galium
Summary of the method: as §1

[5] = Postemergence, 31 g ai/ha, scale 0 to 100
[6] = Postemergence, 62 g ai/ha, scale 0 to 100
[7] = Postemergence, 125 g ai/ha, scale 0 to 100
[8] = Postemergence, 250 g ai/ha, scale 0 to 100
[9] = postemergence, 16 g ai/ha, scale 0 to 100, 0 no effect, 100 complete control

SMILES: N#Cc1cccc(Oc2ncc(Cl)cn2)c1-n1cc(C(F)(F)F)cn1 [Compound 58, 3-[(5-chloro-2-pyrimidinyl)oxy]-2-[4-(trifluoromethyl)-1H-pyrazol-1-yl]benzonitrile]
- pest or weed control at 31 g/ha (speedwell; 31 g ai/ha): 100%
- pest or weed control at 62 g/ha (speedwell; 62 g ai/ha): 100%
- pest or weed control at 125 g/ha (speedwell; 125 g ai/ha): 100%
- pest or weed control at 250 g/ha (speedwell; 250 g ai/ha): 100%
- pest or weed control at 31 g/ha (chickweed; 31 g ai/ha): 70%
- pest or weed control at 62 g/ha (chickweed; 62 g ai/ha): 90%
- pest or weed control at 125 g/ha (chickweed; 125 g ai/ha): 100%
- pest or weed control at 250 g/ha (chickweed; 250 g ai/ha): 100%
- pest or weed control at 31 g/ha (arrowleaf sida; [5]): 80%
- pest or weed control at 62 g/ha (arrowleaf sida; [6]): 90%
- pest or weed control at 125 g/ha (arrowleaf sida; [7]): 95%
- pest or weed control at 250 g/ha (arrowleaf sida; [8]): 98%
- pest or weed control at 16 g/ha (arrowleaf sida; [9]): 70%
- pest or weed control at 31 g/ha (wild buckwheat; 31 g ai/ha): 100%
- pest or weed control at 62 g/ha (wild buckwheat; 62 g ai/ha): 100%
- pest or weed control at 125 g/ha (wild buckwheat; 125 g ai/ha): 100%
- pest or weed control at 250 g/ha (wild buckwheat; 250 g ai/ha): 100%
- pest or weed control at 31 g/ha (lambsquarters [1]; 31 g ai/ha): 100%
- pest or weed control at 62 g/ha (lambsquarters [1]; 62 g ai/ha): 100%
- pest or weed control at 125 g/ha (lambsquarters [1]; 125 g ai/ha): 100%
- pest or weed control at 250 g/ha (lambsquarters [1]; 250 g ai/ha): 100%
- pest or weed control at 31 g/ha (deadnettle [2]; 31 g ai/ha): 80%
- pest or weed control at 62 g/ha (deadnettle [2]; 62 g ai/ha): 100%
- pest or weed control at 125 g/ha (deadnettle [2]; 125 g ai/ha): 100%
- pest or weed control at 250 g/ha (deadnettle [2]; 250 g ai/ha): 100%
- pest or weed control at 31 g/ha (blackgrass; 31 g ai/ha): 20%
- pest or weed control at 62 g/ha (blackgrass; 62 g ai/ha): 55%
- pest or weed control at 125 g/ha (blackgrass; 125 g ai/ha): 100%
- pest or weed control at 250 g/ha (blackgrass; 250 g ai/ha): 100%
- pest or weed control at 31 g/ha (lambsquarters [3]; 31 g ai/ha): 75%
- pest or weed control at 62 g/ha (lambsquarters [3]; 62 g ai/ha): 90%
- pest or weed control at 125 g/ha (lambsquarters [3]; 125 g ai/ha): 95%
- pest or weed control at 250 g/ha (lambsquarters [3]; 250 g ai/ha): 90%
- pest or weed control at 31 g/ha (kochia; 31 g ai/ha): 95%
- pest or weed control at 62 g/ha (kochia; 62 g ai/ha): 95%
- pest or weed control at 125 g/ha (kochia; 125 g ai/ha): 95%
- pest or weed control at 250 g/ha (kochia; 250 g ai/ha): 95%
- corn plant response (injury) rating, 0-100 at 31 g/ha (corn; [5]): 10%
- corn plant response (injury) rating, 0-100 at 62 g/ha (corn; [6]): 10%
- corn plant response (injury) rating, 0-100 at 125 g/ha (corn; [7]): 10%
- corn plant response (injury) rating, 0-100 at 250 g/ha (corn; [8]): 15%
- corn plant response (injury) rating, 0-100 at 16 g/ha (corn; [9]): 5%
- pest or weed control at 31 g/ha (palmer pigweed; [5]): 95%
- pest or weed control at 62 g/ha (palmer pigweed; [6]): 100%
- pest or weed control at 125 g/ha (palmer pigweed; [7]): 100%
- pest or weed control at 250 g/ha (palmer pigweed; [8]): 100%
- pest or weed control at 16 g/ha (palmer pigweed; [9]): 90%
- pest or weed control at 31 g/ha (wild mustard; 31 g ai/ha): 85%
- pest or weed control at 62 g/ha (wild mustard; 62 g ai/ha): 100%
- pest or weed control at 125 g/ha (wild mustard; 125 g ai/ha): 100%
- pest or weed control at 250 g/ha (wild mustard; 250 g ai/ha): 100%
- pest or weed control at 31 g/ha (deadnettle [4]; 31 g ai/ha): 100%
- pest or weed control at 62 g/ha (deadnettle [4]; 62 g ai/ha): 100%
- pest or weed control at 125 g/ha (deadnettle [4]; 125 g ai/ha): 100%
- pest or weed control at 250 g/ha (deadnettle [4]; 250 g ai/ha): 100%
- pest or weed control at 31 g/ha (galium; 31 g ai/ha): 70%
- pest or weed control at 62 g/ha (galium; 62 g ai/ha): 100%
- pest or weed control at 125 g/ha (galium; 125 g ai/ha): 100%
- pest or weed control at 250 g/ha (galium; 250 g ai/ha): 100%
